Structures can show the parent of a compound that is named as a salt. Where two headings read alike, the source gives them in different places.
Experiments:
[1] = target: T1, SARS-CoV-2 PLpro (nsp3 1564–1878) (Severe acute respiratory syndrome coronavirus 2, UniProt P0DTD1); assay: biochemical; design: FRET-quenched peptide (Pro3) cleavage by PLpro, 10 min pre-incubation, slope over 20 min, normalised to no-compound control; conditions: low concentration screen, read-out: % of control remaining
[2] = target: T1, SARS-CoV-2 PLpro (nsp3 1564–1878); assay: biochemical; design: FRET-quenched peptide (Pro3) cleavage by PLpro, 10 min pre-incubation, slope over 20 min, normalised to no-compound control; conditions: high concentration screen, read-out: % of control remaining

**Q.** With `Cc1cc(=O)oc2cc(O)ccc12` [4-Methylumbelliferone] as the compound, how does the remaining activity at 1.25 µM ([1]; Well no.=3342) read?
**A.** Its remaining activity at 1.25 µM is 94%.

**Q.** What about the remaining activity at 3.75 µM ([2]; Well no.=3342) of the same compound?
**A.** Its remaining activity at 3.75 µM is 91.9%.

**Q.** Which remaining activity at 1.25 µM ([1]; Well no.=4357) does the source give for `CCCCCCCCCCOCCC(=O)O` [4-Oxatetradecanoic acid] here?
**A.** Its remaining activity at 1.25 µM is 101%.

**Q.** And the remaining activity at 3.75 µM ([2]; Well no.=4357)?
**A.** The remaining activity at 3.75 µM was 107%.

**Q.** Which results are given for `N#Cc1c(-c2ccccc2)no[n+]1[O-]` [4-Phenyl-3-furoxancarbonitrile]?
**A.** remaining activity at 1.25 µM ([1]; Well no.=998): 97.8%; remaining activity at 3.75 µM ([2]; Well no.=998): 97.8%

**Q.** `Nc1nccc(-c2c(-c3ccc(F)cc3)ncn2C2CCCCC2)n1` [4-[1-cyclohexyl-4-(4-fluorophenyl)-1H-imidazol-5-yl]-2-pyrimidinamine dihydrochloride] was tested. Which remaining activity at 1.25 µM ([1]; Well no.=5961) did it give?
**A.** Its remaining activity at 1.25 µM is 102%.

**Q.** And the remaining activity at 3.75 µM ([2]; Well no.=5961)?
**A.** The remaining activity at 3.75 µM was 102%.

**Q.** How did the remaining activity at 1.25 µM ([1]; Well no.=5465) turn out when `C[C@H](c1ccc(F)cc1CCCC(=O)O)N(c1cc(F)ccc1F)S(=O)(=O)c1ccc(Cl)cc1` [4-[2-((1R)-1-{[(4-chlorophenyl)sulfonyl]-2,5-difluoroanilino}ethyl)-5-fluorophenyl]butanoic acid] was run?
**A.** The remaining activity at 1.25 µM was 98.3%.

**Q.** What about the remaining activity at 3.75 µM ([2]; Well no.=5465) of the same compound?
**A.** The remaining activity at 3.75 µM was 102%.

**Q.** How did the remaining activity at 1.25 µM ([1]; Well no.=5941) turn out when `O=C1CSc2ccccc2N1Cc1cccc(C(F)(F)F)c1` [4-[3-(trifluoromethyl)benzyl]-2H-1,4-benzothiazin-3(4H)-one] was run?
**A.** The remaining activity at 1.25 µM was 104%.

**Q.** And the remaining activity at 3.75 µM ([2]; Well no.=5941)?
**A.** Its remaining activity at 3.75 µM is 103%.

**Q.** With `Cc1ccc(C)c(-c2cc(C(F)(F)F)nn2-c2ccc(S(N)(=O)=O)cc2)c1` [4-[5-(2,5-dimethylphenyl)-3-(trifluoromethyl)-1H-pyrazol-1-yl]benzenesulfonamide] as the compound, how does the remaining activity at 1.25 µM ([1]; Well no.=5924) read?
**A.** Its remaining activity at 1.25 µM is 97.9%.

**Q.** What about the remaining activity at 3.75 µM ([2]; Well no.=5924) of the same compound?
**A.** Its remaining activity at 3.75 µM is 89.1%.

**Q.** What does the source list for `CC(=O)N1CCN(C(=O)/C=C/c2ccc(Sc3ccccc3C(C)C)c([N+](=O)[O-])c2)CC1` [4-[(1E)-3-(4-acetyl-1-piperazinyl)-3-oxo-1-propenyl]-2-nitrophenyl 2-isopropylphenyl sulfide]?
**A.** remaining activity at 1.25 µM ([1]; Well no.=5662): 94.9%; remaining activity at 3.75 µM ([2]; Well no.=5662): 94.5%

**Q.** Which remaining activity at 1.25 µM ([1]; Well no.=5793) does the source give for `CC1(C)C=Cc2c(ccc3c2OC[C@@H](c2ccc(O)cc2O)C3)O1` [4-[(3R)-8,8-dimethyl-3,4-dihydro-2H,8H-pyrano[2,3-f]chromen-3-yl]-1,3-benzenediol] here?
**A.** The remaining activity at 1.25 µM was 100%.

**Q.** And the remaining activity at 3.75 µM ([2]; Well no.=5793)?
**A.** Its remaining activity at 3.75 µM is 104%.

**Q.** What does the source list for `COc1cc2ncnc(Nc3ccc(Cl)cc3F)c2cc1OC` [4-[(4'-Chloro-2'-fluoro)phenylamino]-6,7-dimethoxyquinazoline hydrochloride]?
**A.** remaining activity at 1.25 µM ([1]; Well no.=2540): 96.4%; remaining activity at 3.75 µM ([2]; Well no.=2540): 98.1%

**Q.** How did the remaining activity at 1.25 µM ([1]; Well no.=5467) turn out when `CCN(CC)Cc1ccc(C(=O)N(CCc2ccccc2OC)[C@@H]2CCNC2)cc1` [4-[(diethylamino)methyl]-N-[2-(2-methoxyphenyl)ethyl]-N-[(3R)-3-pyrrolidinyl]benzamide dihydrochloride] was run?
**A.** Its remaining activity at 1.25 µM is 107%.

**Q.** And the remaining activity at 3.75 µM ([2]; Well no.=5467)?
**A.** The remaining activity at 3.75 µM was 109%.

**Q.** For `O=[N+]([O-])c1cc(S(=O)(=O)Nc2ccc(O)c3ccccc23)ccc1Cl` [4-chloro-N-(4-hydroxy-1-naphthyl)-3-nitrobenzenesulfonamide], which remaining activity at 1.25 µM ([1]; Well no.=5816) is on record?
**A.** Its remaining activity at 1.25 µM is 96.1%.

**Q.** And the remaining activity at 3.75 µM ([2]; Well no.=5816)?
**A.** The remaining activity at 3.75 µM was 97.4%.

**Q.** Which remaining activity at 1.25 µM ([1]; Well no.=5837) does the source give for `COc1ccc(C2(C#N)CCC(C(=O)O)CC2)cc1OC1CCCC1` (stereo not drawn) [4-cyano-4-[3-(cyclopentyloxy)-4-methoxyphenyl]cyclohexanecarboxylic acid] here?
**A.** The remaining activity at 1.25 µM was 101%.

**Q.** What about the remaining activity at 3.75 µM ([2]; Well no.=5837) of the same compound?
**A.** Its remaining activity at 3.75 µM is 99.9%.

**Q.** `C[C@@H](c1nc(-c2ccc(C#N)cc2)cs1)[C@](O)(Cn1cncn1)c1ccc(F)cc1F` [4-{2-[(1R,2R)-2-(2,4-difluorophenyl)-2-hydroxy-1-methyl-3-(1H-1,2,4-triazol-1-yl)propyl]-1,3-thiazol-4-yl}benzonitrile] was tested. Which remaining activity at 1.25 µM ([1]; Well no.=5644) did it give?
**A.** Its remaining activity at 1.25 µM is 90.9%.

**Q.** And the remaining activity at 3.75 µM ([2]; Well no.=5644)?
**A.** The remaining activity at 3.75 µM was 92.4%.

**Q.** Which remaining activity at 1.25 µM ([1]; Well no.=5553) does the source give for `CCCCCCCOc1cc2c(cc1/C(C)=C/c1ccc(C(=O)O)cc1)C(C)(C)CCS2(=O)=O` [4-{(1E)-2-[7-(heptyloxy)-4,4-dimethyl-1,1-dioxido-3,4-dihydro-2H-thiochromen-6-yl]-1-propenyl}benzoic acid] here?
**A.** The remaining activity at 1.25 µM was 103%.

**Q.** What about the remaining activity at 3.75 µM ([2]; Well no.=5553) of the same compound?
**A.** The remaining activity at 3.75 µM was 105%.

**Q.** For `COc1cc(C(=O)OCCCCNC(=N)N)cc(OC)c1O` [4-{[amino(imino)methyl]amino}butyl 4-hydroxy-3,5-dimethoxybenzoate], which remaining activity at 1.25 µM ([1]; Well no.=5718) is on record?
**A.** Its remaining activity at 1.25 µM is 93.5%.

**Q.** What about the remaining activity at 3.75 µM ([2]; Well no.=5718) of the same compound?
**A.** Its remaining activity at 3.75 µM is 98.3%.

**Q.** Which results are given for `NS(=O)(=O)c1ccc2c(c1)C1C=CCC1C(c1ccc(Br)cc1)N2` (stereo not drawn) [4BP-TQS]?
**A.** remaining activity at 1.25 µM ([1]; Well no.=5971): 105%; remaining activity at 3.75 µM ([2]; Well no.=5971): 105%

**Q.** Which results are given for `Nc1ncnc2c1ncn2[C@@H]1O[C@H](C(=O)NC2CC2)[C@@H](O)[C@H]1O` [5'-(N-Cyclopropyl)carboxamidoadenosine]?
**A.** remaining activity at 1.25 µM ([1]; Well no.=86): 99.1%; remaining activity at 3.75 µM ([2]; Well no.=86): 101%

**Q.** For `Nc1ccn([C@@H]2O[C@H](COP(=O)(O)O)[C@@H](O)[C@H]2O)c(=O)n1` [5'-Cytidylic acid], which remaining activity at 1.25 µM ([1]; Well no.=8883) is on record?
**A.** The remaining activity at 1.25 µM was 83.4%.

**Q.** And the remaining activity at 3.75 µM ([2]; Well no.=8883)?
**A.** Its remaining activity at 3.75 µM is 86.7%.

**Q.** `C[C@H]1O[C@@H](n2cnc3c(N)ncnc32)[C@H](O)[C@@H]1O` [5'-Deoxyadenosine] was tested. Which remaining activity at 1.25 µM ([1]; Well no.=7251) did it give?
**A.** The remaining activity at 1.25 µM was 97.6%.

**Q.** And the remaining activity at 1.25 µM ([1]; Well no.=7904)?
**A.** The remaining activity at 1.25 µM was 91.4%.

**Q.** What about the remaining activity at 3.75 µM ([2]; Well no.=7251) of the same compound?
**A.** The remaining activity at 3.75 µM was 99%.

**Q.** What about the remaining activity at 3.75 µM ([2]; Well no.=7904) of the same compound?
**A.** The remaining activity at 3.75 µM was 94.7%.

**Q.** What does the source list for `CSC[C@H]1O[C@@H](n2cnc3c(N)ncnc32)[C@H](O)[C@@H]1O` [5'-Methylthioadenosine]?
**A.** remaining activity at 1.25 µM ([1]; Well no.=6295): 102%; remaining activity at 1.25 µM ([1]; Well no.=7812): 105%; remaining activity at 3.75 µM ([2]; Well no.=6295): 103%; remaining activity at 3.75 µM ([2]; Well no.=7812): 106%

**Q.** What does the source list for `CCNC(=O)[C@H]1O[C@@H](n2cnc3c(N)ncnc32)[C@H](O)[C@@H]1O` [5'-N-Ethylcarboxamidoadenosine]?
**A.** remaining activity at 1.25 µM ([1]; Well no.=694): 97.5%; remaining activity at 1.25 µM ([1]; Well no.=7950): 95.4%; remaining activity at 1.25 µM ([1]; Well no.=8119): 104%; remaining activity at 3.75 µM ([2]; Well no.=694): 96%; remaining activity at 3.75 µM ([2]; Well no.=7950): 96.2%; remaining activity at 3.75 µM ([2]; Well no.=8119): 102%

**Q.** With `CNC(=O)[C@H]1O[C@@H](n2cnc3c(N)ncnc32)[C@H](O)[C@@H]1O` [5'-N-Methyl carboxamidoadenosine] as the compound, how does the remaining activity at 1.25 µM ([1]; Well no.=14) read?
**A.** Its remaining activity at 1.25 µM is 101%.

**Q.** What about the remaining activity at 3.75 µM ([2]; Well no.=14) of the same compound?
**A.** Its remaining activity at 3.75 µM is 98%.

**Q.** Which remaining activity at 1.25 µM ([1]; Well no.=4373) does the source give for `CCCCC/C=C\C\C=C/C=C/C=C/[C@@H](O)[C@@H](O)CCCC(=O)O` [5(S),6(R)-DIHETE] here?
**A.** Its remaining activity at 1.25 µM is 106%.

**Q.** What about the remaining activity at 3.75 µM ([2]; Well no.=4373) of the same compound?
**A.** Its remaining activity at 3.75 µM is 103%.

**Q.** For `CCCCC/C=C\C/C=C\C/C=C\C=C\[C@H](CCCC(=O)O)OO` [5(S)-HPETE], which remaining activity at 1.25 µM ([1]; Well no.=4327) is on record?
**A.** Its remaining activity at 1.25 µM is 106%.

**Q.** What about the remaining activity at 3.75 µM ([2]; Well no.=4327) of the same compound?
**A.** Its remaining activity at 3.75 µM is 103%.

**Q.** Which remaining activity at 1.25 µM ([1]; Well no.=4303) does the source give for `CCCCCCCC/C=C\C/C=C\C/C=C\CCCC(=O)O` [5(Z), 8(Z), 11(Z)-Eicosatrienoic Acid] here?
**A.** Its remaining activity at 1.25 µM is 104%.

**Q.** And the remaining activity at 1.25 µM ([1]; Well no.=4594)?
**A.** Its remaining activity at 1.25 µM is 98.9%.

**Q.** What about the remaining activity at 3.75 µM ([2]; Well no.=4303) of the same compound?
**A.** The remaining activity at 3.75 µM was 103%.

**Q.** What about the remaining activity at 3.75 µM ([2]; Well no.=4594) of the same compound?
**A.** Its remaining activity at 3.75 µM is 100%.

**Q.** For `CCCCCCCCCCC/C=C\C/C=C\CCCC(=O)O` [5(Z), 8(Z)-Eicosadienoic acid], which remaining activity at 1.25 µM ([1]; Well no.=4410) is on record?
**A.** Its remaining activity at 1.25 µM is 93.6%.

**Q.** And the remaining activity at 3.75 µM ([2]; Well no.=4410)?
**A.** The remaining activity at 3.75 µM was 92.4%.

**Q.** For `CCCCCCCCCCCCCC/C=C\CCCC(=O)O` [5(Z)-Eicosenoic acid], which remaining activity at 1.25 µM ([1]; Well no.=4408) is on record?
**A.** The remaining activity at 1.25 µM was 101%.

**Q.** What about the remaining activity at 3.75 µM ([2]; Well no.=4408) of the same compound?
**A.** Its remaining activity at 3.75 µM is 92.5%.

From paper PMC8286840, “Identifying SARS-CoV-2 antiviral compounds by screening for small molecule inhibitors of Nsp3 papain-like protease” (Biochemical Journal, 2021)
